In ChEMBL document CHEMBL1201862, “PubChem BioAssay data set” (2004):
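Briefly, cells in 96-well plates were exposed to five compound concentrations for 48 h, and endpoints were estimated by linear interpolation. Abbreviation: GI50, concentration required for 50% inhibition of growth.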 Calls of active or inactive are those of the source. Cut-off read from the data, not from the text of the source: active = GI50 up to about 1.1 µM and inactive = higher.

Columns and labels:
Assay in all cases: growth of human tumour cells (NCI), 48 h
[1] = system: UO-31
[2] = system: HCT-116
[3] = system: SF-268
[4] = system: SW-620
[5] = system: CCRF-CEM
[6] = system: SK-MEL-2
[7] = system: SNB-19
[8] = system: K562
[9] = system: NCI-H23
[10] = system: 786-0
[11] = system: SNB-78
[12] = system: LXFL 529
[13] = system: OVCAR-5
[14] = system: EKVX
[15] = system: DLD-1
[16] = system: HCC 2998
[17] = system: U-251
[18] = system: UACC-257
[19] = system: OVCAR-3
[20] = system: OVCAR-4
[21] = system: DMS-273
[22] = system: SK-MEL-28
[23] = system: IGROV-1
[24] = system: UACC-62
[25] = system: MOLT-4
[26] = system: SK-OV-3
[27] = system: OVCAR-8
[28] = system: KM-20L2
[29] = system: LOX IMVI
[30] = system: Malme-3M
[31] = system: SF-295
[32] = system: NCI-H460
[33] = system: M19-MEL
[34] = system: HOP-18
[35] = system: TK-10
[36] = system: DMS-114
[37] = system: XF498
[38] = system: KM12
[39] = system: A498
[40] = system: SK-MEL-5
[41] = system: HOP-62
[42] = system: NCI-H226
[43] = system: HT-29
[44] = system: A549
[45] = system: SN12C
[46] = system: SNB-75
[47] = system: COLO 205
[48] = system: ACHN
[49] = system: HL-60
[50] = system: NCI-H522
[51] = system: RPMI-8226
[52] = system: SF-539
[53] = system: HCT-15
[54] = system: CAKI-1
[55] = system: HOP-92
[56] = system: M14
[57] = system: RXF 393

Measured: GI50

CC(C)N(C(=O)C12C3C4C5(C#N)C3C1(C#N)C5C42C#N)C(C)C (centres undefined)
inactive: [1] > 100 µM | [2] > 100 µM | [3] > 100 µM | [4] > 100 µM | [5] > 100 µM | [6] > 100 µM | [7] > 100 µM | [8] > 100 µM | [9] > 100 µM | [10] > 100 µM | [11] > 100 µM | [12] > 100 µM | [13] > 100 µM | [14] > 100 µM | [15] > 100 µM | [16] > 100 µM | [17] > 100 µM | [18] > 100 µM | [19] > 100 µM | [20] > 100 µM | [21] > 100 µM | [22] > 100 µM | [23] > 100 µM | [24] > 100 µM | [25] > 100 µM | [26] > 100 µM | [27] > 100 µM | [28] > 100 µM | [29] > 100 µM | [30] > 100 µM | [31] > 100 µM | [32] > 100 µM | [33] > 100 µM | [34] > 100 µM | [35] > 100 µM | [36] > 100 µM | [37] > 100 µM | [38] > 100 µM | [39] > 100 µM | [40] > 100 µM | [41] > 100 µM | [42] > 100 µM | [43] > 100 µM | [44] > 100 µM | [45] > 100 µM | [46] > 100 µM | [47] > 100 µM | [48] > 100 µM | [49] > 100 µM | [50] > 100 µM | [51] > 100 µM | [52] > 100 µM

CN(C)c1nc(N(C)c2ccccc2)[s+]s1
54.3 µM: [53]
inactive: [1] 99.1 µM | [2] 41.7 µM | [3] 63.5 µM | [4] > 100 µM | [5] 35.7 µM | [6] > 100 µM | [7] > 100 µM | [8] 35.1 µM | [9] 65.6 µM | [10] 51.5 µM | [11] > 100 µM | [12] 36.8 µM | [13] > 100 µM | [14] > 100 µM | [15] 92.3 µM | [16] > 100 µM | [17] 31.6 µM | [18] 54.2 µM | [20] > 100 µM | [21] 47.2 µM | [22] 64.3 µM | [23] > 100 µM | [54] > 100 µM | [24] 12.3 µM | [26] > 100 µM | [55] > 100 µM | [27] 66.7 µM | [28] > 100 µM | [30] 60.4 µM | [31] 78.3 µM | [32] 16.7 µM | [33] 18.9 µM | [34] > 100 µM | [35] > 100 µM | [36] 30.8 µM | [37] 20 µM | [38] 36.3 µM | [39] 50.8 µM | [56] 32.4 µM | [40] 36.5 µM | [41] > 100 µM | [42] 99.8 µM | [43] 89.5 µM | [44] 53.3 µM | [45] 44.8 µM | [57] > 100 µM | [46] 83.2 µM | [48] > 100 µM | [49] 15.7 µM | [50] > 100 µM | [52] 57.9 µM

Cc1nc(Nc2ccccc2)sc1C(=O)NNC(N)=O
inactive: [1] > 100 µM | [2] > 100 µM | [3] > 100 µM | [4] > 100 µM | [5] > 100 µM | [6] > 100 µM | [7] > 100 µM | [8] > 100 µM | [9] > 100 µM | [10] > 100 µM | [11] > 100 µM | [12] > 100 µM | [13] > 100 µM | [14] 55.6 µM | [15] > 100 µM | [16] > 100 µM | [17] 99.3 µM | [18] 27.4 µM | [19] > 100 µM | [20] > 100 µM | [21] > 100 µM | [22] > 100 µM | [23] > 100 µM | [54] > 100 µM | [24] > 100 µM | [25] > 100 µM | [26] > 100 µM | [55] 64.4 µM | [27] > 100 µM | [28] > 100 µM | [29] > 100 µM | [30] > 100 µM | [31] > 100 µM | [32] > 100 µM | [33] > 100 µM | [34] > 100 µM | [35] > 100 µM | [36] 84.5 µM | [37] > 100 µM | [38] > 100 µM | [39] 46.9 µM | [56] > 100 µM | [40] > 100 µM | [41] 49.8 µM | [42] > 100 µM | [44] > 100 µM | [45] > 100 µM | [57] 29.2 µM | [46] 29.6 µM | [47] > 100 µM | [48] > 100 µM | [49] > 100 µM | [50] > 100 µM | [51] > 100 µM | [52] > 100 µM
